Results taken from patent EP4467141A1, “PYRAZOLO-QUINOLINES AS SELECTIVE INHIBITORS OF GENOTOXIC STRESS-INDUCED IKK/NF- KB PATHWAYS FOR CANCER THERAPY” (Max-Delbrück-Centrum für Molekulare Medizin in der …, priority 2023, dated 2024).

What was measured:
Experiment in all cases: Kinase panel study
Type in all cases: biochemical
Conditions in all cases: read-out: Percentage of inhibition; for inhibition at 1 µM: 1000nM; for inhibition at 10 µM: 10000nM
AMPK (A2/B1/G3) = biological target: T1, AMPK (A2/B1/G3) (Homo sapiens, UniProt P54646)
T1 construct: purchased Thermo Fisher Scientific
How it was run: (§1)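 Percent inhibition of each kinase by the test compound, given at either 1 µM or 10 µM, came from a contracted panel run by ZLyte or Adapta protocol.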

CSNK1G3 (CK1 gamma 3) = biological target: T2, CSNK1G3 (CK1 gamma 3) (Homo sapiens, UniProt Q9Y6M4)
T2 construct: purchased Thermo Fisher Scientific
T2 sequence (Q9Y6M4 whole entry): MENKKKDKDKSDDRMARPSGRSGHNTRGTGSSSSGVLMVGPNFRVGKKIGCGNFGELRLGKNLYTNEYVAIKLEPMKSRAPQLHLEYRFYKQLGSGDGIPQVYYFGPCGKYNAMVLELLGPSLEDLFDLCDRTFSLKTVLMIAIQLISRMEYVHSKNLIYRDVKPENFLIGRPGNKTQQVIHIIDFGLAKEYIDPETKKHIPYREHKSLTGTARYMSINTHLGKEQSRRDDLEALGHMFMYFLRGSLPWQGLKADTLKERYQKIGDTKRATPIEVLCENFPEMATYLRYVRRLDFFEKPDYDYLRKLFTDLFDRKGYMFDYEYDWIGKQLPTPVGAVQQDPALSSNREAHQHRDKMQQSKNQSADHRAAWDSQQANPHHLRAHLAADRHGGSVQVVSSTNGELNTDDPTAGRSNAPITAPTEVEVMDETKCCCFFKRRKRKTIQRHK
How it was run: as §1

CSNK2A2 (CK2 alpha 2) = biological target: T3, CSNK2A2 (CK2 alpha 2) (Homo sapiens, UniProt P19784)
T3 construct: purchased Thermo Fisher Scientific
How it was run: as §1

FGFR2 N549H = biological target: T4, FGFR2 N549H (Homo sapiens, UniProt P21802, N549H)
T4 construct: purchased Thermo Fisher Scientific
How it was run: as §1

KIT V559D V654A = biological target: T5, KIT V559D V654A (Homo sapiens, UniProt P10721, V559D/V654A)
T5 construct: purchased Thermo Fisher Scientific
T5 sequence (P10721 26-976 V559D/V654A): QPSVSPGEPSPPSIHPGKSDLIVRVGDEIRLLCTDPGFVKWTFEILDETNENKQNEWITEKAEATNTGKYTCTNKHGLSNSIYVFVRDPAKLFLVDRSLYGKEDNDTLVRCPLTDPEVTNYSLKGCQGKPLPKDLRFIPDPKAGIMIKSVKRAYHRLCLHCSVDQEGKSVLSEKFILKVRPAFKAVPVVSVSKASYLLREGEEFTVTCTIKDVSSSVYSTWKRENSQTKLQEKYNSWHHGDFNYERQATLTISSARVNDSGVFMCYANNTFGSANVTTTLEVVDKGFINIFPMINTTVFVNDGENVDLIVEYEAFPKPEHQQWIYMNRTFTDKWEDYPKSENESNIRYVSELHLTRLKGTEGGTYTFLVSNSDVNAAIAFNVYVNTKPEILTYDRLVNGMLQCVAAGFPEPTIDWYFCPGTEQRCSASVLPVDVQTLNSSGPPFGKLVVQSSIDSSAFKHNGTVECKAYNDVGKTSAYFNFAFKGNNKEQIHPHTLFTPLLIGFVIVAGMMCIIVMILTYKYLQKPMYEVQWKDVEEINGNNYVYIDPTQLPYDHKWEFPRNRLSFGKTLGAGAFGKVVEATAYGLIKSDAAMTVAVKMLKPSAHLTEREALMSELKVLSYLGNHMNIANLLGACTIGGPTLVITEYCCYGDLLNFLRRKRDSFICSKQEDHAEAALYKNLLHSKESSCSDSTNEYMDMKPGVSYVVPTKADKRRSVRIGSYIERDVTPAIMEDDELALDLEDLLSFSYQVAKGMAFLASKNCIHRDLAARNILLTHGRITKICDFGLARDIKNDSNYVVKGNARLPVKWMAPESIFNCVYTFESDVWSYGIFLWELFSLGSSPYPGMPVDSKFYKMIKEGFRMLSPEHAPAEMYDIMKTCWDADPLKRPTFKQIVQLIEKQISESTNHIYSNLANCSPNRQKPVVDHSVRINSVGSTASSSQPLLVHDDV
How it was run: as §1

LCK = biological target: T6, LCK (Homo sapiens, UniProt P06239)
T6 construct: purchased Thermo Fisher Scientific
How it was run: as §1

MATK (HYL) = biological target: T7, MATK (HYL) (Homo sapiens, UniProt P42679)
T7 construct: purchased Thermo Fisher Scientific
T7 sequence (P42679 1-507): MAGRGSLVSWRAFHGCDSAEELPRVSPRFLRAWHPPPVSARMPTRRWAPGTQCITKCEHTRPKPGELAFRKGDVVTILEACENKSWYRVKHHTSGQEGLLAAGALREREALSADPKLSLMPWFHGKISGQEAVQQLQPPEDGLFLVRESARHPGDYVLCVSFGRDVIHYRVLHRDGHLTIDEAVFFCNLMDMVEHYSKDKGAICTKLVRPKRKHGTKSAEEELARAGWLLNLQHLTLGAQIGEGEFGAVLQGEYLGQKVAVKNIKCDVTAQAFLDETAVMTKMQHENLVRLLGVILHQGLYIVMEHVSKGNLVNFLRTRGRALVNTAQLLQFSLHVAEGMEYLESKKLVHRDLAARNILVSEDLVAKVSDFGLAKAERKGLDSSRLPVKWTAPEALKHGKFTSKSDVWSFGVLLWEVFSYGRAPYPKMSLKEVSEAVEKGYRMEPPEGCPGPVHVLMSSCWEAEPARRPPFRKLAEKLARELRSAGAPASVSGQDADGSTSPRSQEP
How it was run: as §1

PAK2 (PAK65) = biological target: T8, PAK2 (PAK65) (Homo sapiens, UniProt Q13177)
T8 construct: purchased Thermo Fisher Scientific
How it was run: as §1

PI4KA (PI4K alpha) = biological target: T9, PI4KA (PI4K alpha) (Homo sapiens, UniProt P42356)
T9 construct: purchased Thermo Fisher Scientific
T9 sequence (P42356 whole entry): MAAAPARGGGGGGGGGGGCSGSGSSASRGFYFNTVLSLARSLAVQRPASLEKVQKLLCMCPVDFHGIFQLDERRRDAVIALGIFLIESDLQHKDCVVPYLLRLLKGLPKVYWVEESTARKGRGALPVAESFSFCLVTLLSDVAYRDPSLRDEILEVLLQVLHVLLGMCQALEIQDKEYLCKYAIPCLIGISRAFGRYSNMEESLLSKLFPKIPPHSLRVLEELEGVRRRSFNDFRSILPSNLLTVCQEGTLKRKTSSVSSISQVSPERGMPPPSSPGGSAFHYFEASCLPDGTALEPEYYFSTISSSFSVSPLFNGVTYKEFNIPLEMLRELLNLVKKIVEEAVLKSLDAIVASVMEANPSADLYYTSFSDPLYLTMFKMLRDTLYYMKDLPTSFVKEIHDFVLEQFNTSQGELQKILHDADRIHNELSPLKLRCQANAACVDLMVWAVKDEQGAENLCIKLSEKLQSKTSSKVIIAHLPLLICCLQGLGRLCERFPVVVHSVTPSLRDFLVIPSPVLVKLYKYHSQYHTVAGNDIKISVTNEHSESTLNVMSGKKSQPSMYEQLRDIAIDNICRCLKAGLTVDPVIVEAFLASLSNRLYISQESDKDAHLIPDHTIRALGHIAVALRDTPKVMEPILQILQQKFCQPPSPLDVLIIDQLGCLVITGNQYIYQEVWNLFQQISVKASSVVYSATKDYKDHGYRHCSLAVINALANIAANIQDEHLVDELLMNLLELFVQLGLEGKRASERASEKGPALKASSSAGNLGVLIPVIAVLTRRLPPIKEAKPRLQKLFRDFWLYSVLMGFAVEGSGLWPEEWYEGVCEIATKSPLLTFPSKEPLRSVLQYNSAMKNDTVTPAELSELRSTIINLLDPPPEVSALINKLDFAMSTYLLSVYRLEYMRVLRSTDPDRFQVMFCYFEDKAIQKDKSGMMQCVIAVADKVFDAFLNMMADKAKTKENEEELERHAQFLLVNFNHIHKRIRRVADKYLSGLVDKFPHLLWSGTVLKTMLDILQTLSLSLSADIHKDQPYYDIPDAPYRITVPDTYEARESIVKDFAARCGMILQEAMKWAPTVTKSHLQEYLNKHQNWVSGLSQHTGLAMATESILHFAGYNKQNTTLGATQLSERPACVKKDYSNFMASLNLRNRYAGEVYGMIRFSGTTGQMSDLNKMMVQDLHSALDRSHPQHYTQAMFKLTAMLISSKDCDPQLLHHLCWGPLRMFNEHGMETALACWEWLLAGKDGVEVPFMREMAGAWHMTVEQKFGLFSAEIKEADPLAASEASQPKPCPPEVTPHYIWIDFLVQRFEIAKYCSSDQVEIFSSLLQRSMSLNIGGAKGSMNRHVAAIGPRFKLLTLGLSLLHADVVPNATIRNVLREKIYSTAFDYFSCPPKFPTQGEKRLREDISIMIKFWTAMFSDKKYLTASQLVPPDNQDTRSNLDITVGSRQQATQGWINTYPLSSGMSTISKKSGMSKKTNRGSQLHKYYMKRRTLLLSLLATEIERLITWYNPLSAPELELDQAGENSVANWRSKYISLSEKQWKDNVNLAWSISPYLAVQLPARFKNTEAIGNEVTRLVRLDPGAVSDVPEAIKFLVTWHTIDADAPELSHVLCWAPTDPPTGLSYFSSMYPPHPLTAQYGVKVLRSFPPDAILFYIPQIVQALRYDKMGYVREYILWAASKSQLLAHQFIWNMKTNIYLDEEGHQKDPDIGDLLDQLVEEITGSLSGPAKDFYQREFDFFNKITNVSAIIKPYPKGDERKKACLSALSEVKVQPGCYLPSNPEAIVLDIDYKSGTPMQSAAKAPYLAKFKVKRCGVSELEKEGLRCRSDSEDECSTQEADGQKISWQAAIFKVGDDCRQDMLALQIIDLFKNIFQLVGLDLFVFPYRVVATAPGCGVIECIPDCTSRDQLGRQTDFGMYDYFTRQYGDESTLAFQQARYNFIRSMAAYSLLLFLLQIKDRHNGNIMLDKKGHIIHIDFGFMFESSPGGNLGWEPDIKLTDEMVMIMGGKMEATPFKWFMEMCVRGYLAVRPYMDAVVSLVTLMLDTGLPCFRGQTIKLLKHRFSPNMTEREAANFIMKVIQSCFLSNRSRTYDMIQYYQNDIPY
How it was run: as §1

PRKACA (PKA) = biological target: T10, PRKACA (PKA) (Homo sapiens, UniProt P17612)
T10 construct: purchased Thermo Fisher Scientific
How it was run: as §1

RET S891A = biological target: T11, RET S891A (Homo sapiens, UniProt P07949, S891A)
T11 construct: purchased Thermo Fisher Scientific
T11 sequence (P07949 29-1114 S891A): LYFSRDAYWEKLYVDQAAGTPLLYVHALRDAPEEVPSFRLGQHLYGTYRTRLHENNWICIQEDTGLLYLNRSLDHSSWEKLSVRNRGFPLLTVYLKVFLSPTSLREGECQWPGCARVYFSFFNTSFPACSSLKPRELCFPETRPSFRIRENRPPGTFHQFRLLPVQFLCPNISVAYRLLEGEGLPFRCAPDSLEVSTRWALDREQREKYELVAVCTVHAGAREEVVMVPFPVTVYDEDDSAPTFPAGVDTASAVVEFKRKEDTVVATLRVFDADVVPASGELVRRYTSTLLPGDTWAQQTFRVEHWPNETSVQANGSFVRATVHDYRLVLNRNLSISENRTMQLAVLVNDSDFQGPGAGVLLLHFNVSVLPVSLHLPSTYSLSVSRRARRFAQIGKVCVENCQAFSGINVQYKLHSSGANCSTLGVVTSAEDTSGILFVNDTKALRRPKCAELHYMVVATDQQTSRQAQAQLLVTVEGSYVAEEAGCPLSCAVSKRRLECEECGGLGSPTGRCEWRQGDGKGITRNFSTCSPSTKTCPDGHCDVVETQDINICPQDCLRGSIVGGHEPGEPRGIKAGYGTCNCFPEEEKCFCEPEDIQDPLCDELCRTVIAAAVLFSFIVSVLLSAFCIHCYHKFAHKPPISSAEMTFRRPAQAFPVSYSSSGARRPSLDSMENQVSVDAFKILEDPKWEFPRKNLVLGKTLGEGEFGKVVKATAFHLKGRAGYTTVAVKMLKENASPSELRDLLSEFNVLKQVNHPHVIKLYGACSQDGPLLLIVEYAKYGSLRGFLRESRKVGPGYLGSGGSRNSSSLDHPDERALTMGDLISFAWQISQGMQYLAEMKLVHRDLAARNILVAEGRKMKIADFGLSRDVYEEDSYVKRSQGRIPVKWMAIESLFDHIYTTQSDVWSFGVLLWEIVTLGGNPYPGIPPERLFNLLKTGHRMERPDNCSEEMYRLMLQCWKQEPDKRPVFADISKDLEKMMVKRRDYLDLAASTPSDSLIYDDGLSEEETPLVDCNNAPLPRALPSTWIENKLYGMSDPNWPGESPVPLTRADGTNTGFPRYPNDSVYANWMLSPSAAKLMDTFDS
How it was run: as §1

RPS6KB2 (p70S6Kb) = biological target: T12, RPS6KB2 (p70S6Kb) (Homo sapiens, UniProt Q9UBS0)
T12 construct: purchased Thermo Fisher Scientific
T12 sequence (Q9UBS0 whole entry): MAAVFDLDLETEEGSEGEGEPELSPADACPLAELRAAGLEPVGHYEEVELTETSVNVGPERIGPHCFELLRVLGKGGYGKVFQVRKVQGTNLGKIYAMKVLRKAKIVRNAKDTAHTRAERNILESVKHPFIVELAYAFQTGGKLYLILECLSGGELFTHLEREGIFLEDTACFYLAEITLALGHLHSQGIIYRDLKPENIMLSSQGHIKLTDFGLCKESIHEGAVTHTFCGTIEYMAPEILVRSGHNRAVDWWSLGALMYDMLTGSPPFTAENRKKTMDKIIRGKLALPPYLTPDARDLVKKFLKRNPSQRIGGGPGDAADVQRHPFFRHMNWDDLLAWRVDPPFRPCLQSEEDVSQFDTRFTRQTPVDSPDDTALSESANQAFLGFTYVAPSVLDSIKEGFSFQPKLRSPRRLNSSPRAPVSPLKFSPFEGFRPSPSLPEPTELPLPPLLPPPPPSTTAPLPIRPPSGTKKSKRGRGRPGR
How it was run: as §1

| Structure (SMILES) | inhibition at 1 µM (AMPK (A2/B1/G3)) [%] | inhibition at 10 µM (AMPK (A2/B1/G3)) [%] | inhibition at 1 µM (CSNK1G3 (CK1 gamma 3)) [%] | inhibition at 10 µM (CSNK1G3 (CK1 gamma 3)) [%] | inhibition at 1 µM (CSNK2A2 (CK2 alpha 2)) [%] | inhibition at 10 µM (CSNK2A2 (CK2 alpha 2)) [%] | inhibition at 1 µM (FGFR2 N549H) [%] | inhibition at 10 µM (FGFR2 N549H) [%] | inhibition at 1 µM (KIT V559D V654A) [%] | inhibition at 10 µM (KIT V559D V654A) [%] | inhibition at 1 µM (LCK) [%] | inhibition at 10 µM (LCK) [%] | inhibition at 1 µM (MATK (HYL)) [%] | inhibition at 10 µM (MATK (HYL)) [%] | inhibition at 1 µM (PAK2 (PAK65)) [%] | inhibition at 10 µM (PAK2 (PAK65)) [%] | inhibition at 1 µM (PI4KA (PI4K alpha)) [%] | inhibition at 10 µM (PI4KA (PI4K alpha)) [%] | inhibition at 1 µM (PRKACA (PKA)) [%] | inhibition at 10 µM (PRKACA (PKA)) [%] | other results |
| --- | --- | --- | --- | --- | --- | --- | --- | --- | --- | --- | --- | --- | --- | --- | --- | --- | --- | --- | --- | --- | --- |
| COc1ccc2c(c1OC)c(=O)n1c3ccc(O)cc3c3ccnc2c31 [MW01, 5-Hydroxy-10,11-dimethoxy-9H-benzo[c]indolo[3,2,1-ij][1,5]naphthyridin-9-one] | -2 | 12 | 4 | 12 | 16 | 29 | 0 | 13 | -10 | -12 | 12 | 37 | 14 | 2 | 14 | 7 | 13 | 23 | 6 | 17 | inhibition at 1 µM (RET S891A): -3%; inhibition at 10 µM (RET S891A): 30%; inhibition at 1 µM (RPS6KB2 (p70S6Kb)): 7%; inhibition at 10 µM (RPS6KB2 (p70S6Kb)): 1% |
| COc1ccc2cc3c(N)nn(C(=O)c4cccc(N(C)C)c4)c3nc2c1 [MW05, (3-Amino-7-methoxypyrazolo[3,4-b]quinolin-1-yl)-[3-(dimethylamino)phenyl]methanone] | 0 | -3 | 1 | 9 | 7 | 4 | -4 | -22 | -16 | -37 | 8 | 5 | 13 | 13 | 14 | 4 | 1 | -1 | 12 | -15 | inhibition at 1 µM (RET S891A): -15%; inhibition at 10 µM (RET S891A): -18%; inhibition at 1 µM (RPS6KB2 (p70S6Kb)): 3%; inhibition at 10 µM (RPS6KB2 (p70S6Kb)): 15% |
